# Laboratory results reported in patent publication US9201014B2, “Development of photostable near-IR cyanine dyes for in vivo imaging” (National University of Singapore, priority 2010, dated 2015).
# Key:
# [1] = Absorbance and fluorescence maximum wavelengths and quantum yields of the CyNA library; format: physicochemical
# In short: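 Absorption and emission maxima and quantum yields of the 80-member amine-derivatized CyNA library were measured on a plate spectrophotometer.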
# [2] = Primary screening of photostability of the CyNA library (time-course fluorescence, 8 h); format: physicochemical; settings: 10 μM in HEPES 100 mM pH 7.4, 2% DMSO
# In short: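 CyNA dyes at 10 μM in 100 mM HEPES pH 7.4 with 2% DMSO irradiated by xenon lamp for 8 h. Fluorescence (ex/em 790-820 nm) read every 10 min; stability given as F8h/Fo.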
# [3] = system: mouse macrophage Raw 264.7 cell line; test: High-throughput cell imaging-based screen of CyNA library; settings: Raw 264.7 vs mouse splenocytes
# Experimental: In order to identify CyNA probes that could selectively stain mouse macrophage Raw 264.7 cell line (a mouse leukemic monocyte macrophage cell line), a library of CyNA compounds was assayed in a high-throughput cell imaging-based screen. The cell images were recorded using an automated imaging microscope system, IMAGEXPRESS MICRO™, and the fluorescent images were analyzed by cellular fluorescence intensity using METAXPRESS® image processing software.
# [4] = system: primary mouse peritoneal cavity cells; test: Validation of macrophage selectivity (peritoneal cells, Raw 264.7, splenocytes); format: cell-based; settings: 1 μM, 1 hour
# Experimental: To validate the selectivity of CyNA-374, primary mouse peritoneal cavity cells were prepared. The identity of the mouse peritoneal cells was confirmed with CD11b macrophage antibody and flow cytometry. Next, the mouse peritoneal cells, Raw 264.7 cells and splenocytes were seeded in parallel. The following day, the cells were incubated with 1 μM CyNA-374 for 1 hour, then analyzed immediately using fluorescence microscopy.
# [5] = system: M1 macrophages (LPS-activated Raw 264.7 cells); test: Staining of activated (M1) macrophages; format: cell-based, mouse; settings: 1 μM, 1 hour
# Experimental: To determine if CyNA-374 could stain activated macrophages, Raw 264.7 cells were activated to M1 macrophages. Raw 264.7 cells were plated at 5×10^6 cells/well and allowed to adhere. In some experiments, the cells were then starved for 12 hours, meaning that cells were washed with phosphate-buffered saline (PBS) and incubated in DMEM supplemented with 1% penicillin/streptomycin for 12 hours, but without 10% FBS. After 12 hours, the cells were exposed to 60 ng/mL LPS and, at the 24-hour time point, the supernatant from the cells stimulated by LPS was collected for measurement of NO2 using the Griess reaction. The unstimulated Raw 264.7 cells produced approximately 8.5 μmol/L NO2, while the stimulated Raw 264.7 (or M1) cells produced approximately 45 μmol/L NO2. The M1 cells were seeded in parallel with the unactivated Raw 264.7 cells and the splenocytes. The cells were incubated with 1 μM CyNA-374 for 1 hour, then analyzed using fluorescence microscopy.
smiles,measurement,setting,value
CCCN1/C(=C/C=C2\CCCC(/C=C/C3=[N+](CCC)c4ccccc4C3(C)C)=C2N(Cc2ccccc2)C(C)=O)C(C)(C)c2ccccc21 [CyNA-374],"λabs, absorbance maximum wavelength",[1]; CyNA library,806 nm
same,"λem, fluorescence maximum wavelength",[1]; CyNA library,821 nm
same,"φ, quantum yield","[1]; in DMSO, Cardiogreen as standard",0.14
same,"F/Fo, fluorescent intensity at 8 hours vs 0 hours",[2],94%
same,"max RFU, maximum relative fluorescence units",[2],1224.6
same,selective staining in cell imaging screen,[3],"selectively stained mouse macrophages, but not mouse splenocytes"
same,staining by fluorescence microscopy,[4],stained both the Raw 264.7 cells and the mouse peritoneal cells
same,staining of activated macrophages,[5],stained both the unactivated Raw 264.7 cells and the M1 cells
